Reference: PMC3673990, “Physicochemical Characterization of a Thermostable Alcohol Dehydrogenase from Pyrobaculum aerophilum” (PLoS ONE, 2013)

What was measured:
[1] = target: T1, PyAeADHII (Pyrobaculum aerophilum, UniProt Q8ZUP0); assay: X-ray co-crystal structure, […] Å; type: binding; settings: modelled as NADPH, NADP+ not excluded; pH 7.5
T1 construct: gene PAE2687; structural zinc only (Cys-91, Cys-94, Cys-97, Cys-105); Asn-39, Ser-61, Ile-147, Arg-88 in active site

[2] = target: T1, PyAeADHII; assay: spectrophotometric NADPH oxidation at […] nm; type: biochemical; settings: 0.3 mM NADPH, 50 mM sodium phosphate pH 7.5, 37 °C; reduction to alpha-tetralol

T1 sequence (Q8ZUP0 entry or part of it): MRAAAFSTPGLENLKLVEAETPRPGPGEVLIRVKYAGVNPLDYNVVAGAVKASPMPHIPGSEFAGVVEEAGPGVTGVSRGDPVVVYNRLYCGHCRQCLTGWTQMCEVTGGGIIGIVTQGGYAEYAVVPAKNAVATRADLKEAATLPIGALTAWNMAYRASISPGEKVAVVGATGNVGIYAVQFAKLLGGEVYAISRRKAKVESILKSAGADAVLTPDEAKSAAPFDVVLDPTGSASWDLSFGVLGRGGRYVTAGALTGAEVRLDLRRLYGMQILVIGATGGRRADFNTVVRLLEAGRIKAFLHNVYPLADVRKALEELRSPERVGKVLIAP

| Compound | X-ray co-crystal structure, 2.35 Å [1] | spectrophotometric NADPH oxidation at 340 nm [2] |
| --- | --- | --- |
| NC(=O)C1=CN([C@@H]2O[C@H](COP(=O)(O)OP(=O)(O)OC[C@H]3O[C@@H](n4cnc5c(N)ncnc54)[C@H](OP(=O)(O)O)[C@@H]3O)[C@@H](O)[C@H]2O)C=CC1 [NADPH] | we determined the co-crystal structure of PyAeADHII monomer bound to NADPH |  |
| O=C1CCCc2ccccc21 [α-tetralone] |  | The standard assay for the reduction reaction of α-tetralone |
